From ChEMBL document CHEMBL4706744, “Discovery of Selective Transforming Growth Factor β Type II Receptor Inhibitors as Antifibrosis Agents” (ACS Med Chem Lett, 2021)

Experiments:
[1] = Metabolic stability in rat liver microsomes assessed as compound remaining at 1 uM incubated for 60 mins; assay type: ADME, Microsome; details: read-out: Stabilty
[2] = Metabolic stability in human liver microsomes assessed as compound remaining at 1 uM incubated for 60 mins; assay type: ADME, Microsome; details: read-out: Stabilty
[3] = AUC in mouse at 1 mg/kg, po by LC/MS analysis; assay type: ADME, organism-based; design: dose 1 mg/kg; details: in vivo
[4] = Total clearance in Sprague-Dawley rat at 0.3 mg/kg, iv measured up to 24 hrs by LC-MS/MS analysis; assay type: ADME, organism-based; details: in vivo
[5] = Oral bioavailability in mouse at 1 mg/kg by LC/MS analysis; assay type: ADME, organism-based; details: in vivo
[6] = Apparent permeability across apical to basolateral side in human Caco2 cells incubated for 2 hrs by LC/MS/MS analysis; assay type: ADME, cell-based; details: Caco-2, read-out: permeability
[7] = Volume of distribution at steady state in Sprague-Dawley rat at 0.3 mg/kg, iv measured up to 24 hrs by LC-MS/MS analysis; assay type: ADME, organism-based; details: in vivo, read-out: Vdss
[8] = Solubility of the compound measured after 4 hrs by LC analysis; assay type: physicochemical
[9] = Half life in mouse at 1 mg/kg, po by LC/MS analysis; assay type: ADME, organism-based; details: in vivo
[10] = Mean residence time in Sprague-Dawley rat at 0.3 mg/kg, iv measured up to 24 hrs by LC-MS/MS analysis; assay type: ADME, organism-based; details: in vivo

Row | Structure (SMILES) | remaining at 1 h, 1 µM [1] [%] | remaining at 1 h, 1 µM [2] [%] | further results
1 | Cn1cc(-c2nc3c(-c4ccnc(OC5CC5)c4)cnn3cc2OCC(C)(C)O)cn1 | 81 | 53 | –
2 | COc1cn2ncc(-c3ccnc(OC4CC4)c3)c2nc1-c1cnn(C)c1 | 32 | 47 | –
3 | COc1cc(-c2cnn3cc(OC)c(-c4cc(C)no4)nc23)ccn1 | 62 | 31 | –
4 | COc1cn2ncc(-c3ccnc(OC(C)(C)C)c3)c2nc1-c1cnn(C)c1 | 61 | 35 | –
5 | COc1cn2ncc(-c3ccnc(OC(C)C)c3)c2nc1-c1cnn(C)c1 | 50 | 32 | –
6 | Cn1cc(-c2nc3c(-c4ccnc(OC5CC5)c4)cnn3cc2OCCC(C)(C)O)cn1 | 84 | 74 | AUC [3]: 2.3 µM·h; clearance [4]: 8.17 mL/min/kg; bioavailability [5]: 48%; Papp A→B at 2 h [6]: 1.4 ×10⁻⁶ cm/s; Vd [7]: 2.7 L/kg; solubility [8]: Soluble; half-life [9]: 4.6 h; MRT [10]: 5.5 h
7 | COc1cc(-c2cnn3cc(OC)c([C@@H]4COC(C)(C)C4)nc23)ccn1 | 30 | 13 | –
8 | COc1cc(-c2cnn3cc(OC)c(C(C)(C)O)nc23)ccn1 | 92 | 66 | –
9 | COc1cc(-c2cnn3cc(OC)c(C(C)C)nc23)ccn1 | 14 | 40 | –
10 | COc1cc(-c2cnn3cc(OC)c(C4CCCC4)nc23)ccn1 | 7 | 32 | –
11 | COc1cc(-c2cnn3cc(OC)c(N(C)C)nc23)ccn1 | 3 | 16 | –
12 | Cn1cc(-c2nc3c(-c4ccnc(OC5CC5)c4)cnn3cc2OCCCC(C)(C)O)cn1 | 64 | 54 | –
13 | COc1cc(-c2cnn3cc(OC)c([C@H]4COC(C)(C)C4)nc23)ccn1 | 30 | 21 | –
14 | COc1cnc2c(-c3ccnc(OC)c3)cnn2c1 | 10 | 2 | –
15 | COc1cc(-c2cnn3cc(OC)c(C)nc23)ccn1 | 13 | 44 | –
16 | COc1cc(-c2cnn3cc(OC)c(-c4cnn(C)c4)nc23)ccn1 | 56 | 43 | –
17 | COc1cc(-c2cnn3cc(OC)c(C4CCOC4)nc23)ccn1 (centres undefined) | 34 | 29 | –
18 | CNc1nc2c(-c3ccnc(OC)c3)cnn2cc1OC | 74 | 63 | –
